In article PMC6277767, “Broad and Region-Specific Impacts of the Synthetic Cannabinoid CP 55,940 in Adolescent and Adult Female Mouse Brains” (Frontiers in Molecular Neuroscience, 2018):

System: CD1 female mouse brain lipidome
Assay: Brain-region lipid levels (HPLC/MS/MS lipidomics) 2 h after single i.p. 3 mg/kg CP 55,940 vs vehicle
Type: in vivo
Set-up: N-arachidonoyl phenylalanine level, Mean / N-stearoyl tryptophan level, Mean / N-stearoyl proline level, Mean / N-stearoyl leucine level, Mean / N-stearoyl phenylalanine level, Mean / N-stearoyl serine level, Mean / N-stearoyl methionine level, Mean: unit: moles per gram
Conditions: cortex
Protocol: The Bloomington Institutional Animal Care and Use Committee of Indiana University reviewed and approved the animal procedures. Female mice from the CD1 strain were utilized to match our study examining THC’s effects on the brain lipidome ([Leishman et al., 2018]). Mice were given a single i.p. injection of either 3 mg/kg CP or 1:1:18 cremophor:ethanol:saline vehicle (please refer to the section “3 mg/kg CP Is Relevant for Synthetic Cannabinoid Abuse and Has Stronger Effects on the Female Mouse Brain Lipidome During Adolescence” for a justification of dose and use of female mice). Three different age groups were given injections: PND 35 and PND 50 adolescents, and adult mice (PND 113). At least eight mice in each age group received CP and at least eight received vehicle. Matching the THC study time course ([Leishman et al., 2018]), mice were sacrificed via rapid decapitation 2 h after injection. Brains were immediately removed and flash-frozen in liquid nitrogen, and then stored at -80°C until dissections were performed. Brains were dissected on an ice-cold dissection plate into the following regions: STR, HIPP, CER, THAL, CTX, HYP, MID, and STEM. These abbreviations for these brain areas will be used exclusively when discussing the results generated by these specific dissections. Each dissected area was immediately placed in liquid nitrogen and then stored at -80°C until used for lipid extraction.
Tissue extracts were performed as previously described ([Bradshaw et al., 2006]; [Stuart et al., 2013]; [Raboune et al., 2014]; [Leishman et al., 2016a],[b], [2017], [2018]). First, samples were shock frozen in liquid nitrogen, weighed, and transferred to a centrifuge tube. The mass of the largest sample was multiplied by 50 to determine how many milliliters of HPLC-grade methanol (Fisher, Fair Lawn, NJ, United States) to add. Then, samples were spiked with 500 pmol deuterium-labeled NAGly (d8NAGly; Cayman Chemical, Ann Arbor, MI, United States). Samples were placed on ice in darkness for 2 h then individually homogenized and centrifuged at 19,000 × g for 20 min at 20°C. Supernatants were diluted with HPLC water (purified in house) to make a solution of 75% water, 25% supernatant. Lipids were partially purified on C18 solid phase extraction columns (Agilent, Palo Alto, CA, United States). A series of four elutions with 1.5 mL of 60%, 75%, 85%, and 100% methanol were collected ([Stuart et al., 2013]; [Leishman et al., 2016a],[b], [2018]).
As previously described ([Bradshaw et al., 2006]; [Tan et al., 2006]; [Smoum et al., 2010]; [Stuart et al., 2013]; [Tortoriello et al., 2013]; [Raboune et al., 2014]; [Leishman et al., 2016a],[b], [2017], [2018]), samples were analyzed using an Applied Biosystems API 3000 triple quadrupole mass spectrometer with electrospray ionization (Foster City, CA, United States). Using an Agilent XDB-C18 reversed phase analytical column and optimized mobile phase gradients, 20 μL from each elution were chromatographed. Two Shimadzu 10ADvp pumps (Columbia, MD, United States) provided the pressure for gradient elution. Mobile phase A: 20% methanol, 80% water (v/v) and 1 mM ammonium acetate (Sigma, St. Louis, MO, United States). Mobile phase B: 100% methanol, 1 mM ammonium acetate. Every method run began with 0% mobile phase B, reached 100% mobile phase B flowing at 0.2 mL/min, and gradually returned to 0% mobile phase B.
This screening library will be referred to as the lipidome when discussing data from this study. HPLC/MS/MS data were analyzed using Analyst software (Applied Biosystems) ([Bradshaw et al., 2006]; [Tan et al., 2006]; [Stuart et al., 2013]; [Tortoriello et al., 2013]; [Raboune et al., 2014]; [Leishman et al., 2016a],[b], [2017], [2018]). Chromatograms (Supplementary Figure 3) were generated by determining the retention time of analytes from the analytical column with a [M-1] or [M+1] parent peak and a fragmentation peak corresponding to the programmed values. […]

[1] = PND 50 female mice, 3mg/kg CP 55,940
[2] = WT adult female mice, 3mg/kg CP 55,940

In the case of `CCCCCCC(C)(C)c1ccc([C@@H]2C[C@H](O)CC[C@H]2CCCO)c(O)c1` [CP 55,940], the “N-palmitoyl leucine level, Mean” value [1] is reported as 1.98E-12, the “N-palmitoyl methionine level, Mean” value [1] is reported as 1.01E-12 and the “N-palmitoyl phenylalanine level, Mean” value [1] is reported as 1.98E-12. For the same compound, the “N-palmitoyl proline level, Mean” value [1] was “BDL”, the “N-palmitoyl serine level, Mean” value [1] was 4.17E-11 and the “N-palmitoyl tryptophan level, Mean” value [1] was “BDL”. The “N-palmitoyl tyrosine level, Mean” value [1] was 6.65E-13, the “N-palmitoyl valine level, Mean” value [1] was 3.13E-13 and the “N-stearoyl GABA level, Mean” value [1] was 1.55E-11. The “N-stearoyl alanine level, Mean” value [1] was 3.67E-12, the “N-stearoyl ethanolamine level, Mean” value [1] was 2.8E-12 and the “N-stearoyl glycine level, Mean” value [1] was 1.45E-12. The “N-stearoyl leucine level, Mean” value [1] was 2.21E-12, the “N-stearoyl methionine level, Mean” value [1] was 1.13E-12 and the “N-stearoyl phenylalanine level, Mean” value [1] was 2.99E-12. For the same compound, the “N-stearoyl proline level, Mean” value [1] was “BDL”, the “N-stearoyl serine level, Mean” value [1] was 3.75E-11 and the “N-stearoyl tryptophan level, Mean” value [1] was “BDL”. The “N-stearoyl tyrosine level, Mean” value [1] was 2.52E-13, the “Oleic acid level, Mean” value [1] was 1.6E-09 and the “PGE2 level, Mean” value [1] was 1.58E-10. The “PhosphoLEA level, Mean” value [1] was 3.22E-12, the “THC level, Mean” value [1] was “BDL” and the “N-arachidonoyl GABA level, Mean” value [2] was 1.28E-11. The “N-arachidonoyl alanine level, Mean” value [2] was 1.09E-12, the “N-arachidonoyl ethanolamine level, Mean” value [2] was 2.77E-11 and the “N-arachidonoyl glycine level, Mean” value [2] was 1.07E-12. For the same compound, the “N-arachidonoyl phenylalanine level, Mean” value [2] was 5.77E-14, the “N-docosahexaenoyl GABA level, Mean” value [2] was 6.57E-12 and the “N-docosahexaenoyl ethanolamine level, Mean” value [2] was 2.54E-11. For the same compound, the “N-docosahexaenoyl glycine level, Mean” value [2] was 8.32E-14, the “N-docosahexaenoyl leucine level, Mean” value [2] was 8.03E-13 and the “N-docosahexaenoyl phenylalanine level, Mean” value [2] was 3E-14. For the same compound, the “N-linoleoyl GABA level, Mean” value [2] was 4.08E-12, the “N-linoleoyl ethanolamine level, Mean” value [2] was 2.93E-11 and the “N-linoleoyl glycine level, Mean” value [2] was 5.03E-14. The “N-linoleoyl leucine level, Mean” value [2] was 9.31E-14, the “N-oleoyl GABA level, Mean” value [2] was 9.86E-12 and the “N-oleoyl alanine level, Mean” value [2] was 2.22E-12. For the same compound, the “N-oleoyl ethanolamine level, Mean” value [2] was 1.38E-10, the “N-oleoyl glycine level, Mean” value [2] was 2.9E-13 and the “N-oleoyl leucine level, Mean” value [2] was 7.57E-13. For the same compound, the “N-oleoyl phenylalanine level, Mean” value [2] was 3.2E-13, the “N-palmitoyl GABA level, Mean” value [2] was 1.4E-11 and the “N-palmitoyl alanine level, Mean” value [2] was 2.07E-12. For the same compound, the “N-palmitoyl ethanolamine level, Mean” value [2] was 3.62E-11, the “N-palmitoyl glycine level, Mean” value [2] was 9.43E-13 and the “N-palmitoyl leucine level, Mean” value [2] was 1.16E-12. For the same compound, the “N-palmitoyl methionine level, Mean” value [2] was 2.58E-12, the “N-palmitoyl phenylalanine level, Mean” value [2] was 2.56E-13 and the “N-stearoyl GABA level, Mean” value [2] was 1.05E-11. For the same compound, the “N-stearoyl alanine level, Mean” value [2] was 3.38E-12, the “N-stearoyl ethanolamine level, Mean” value [2] was 3.18E-11 and the “N-stearoyl glycine level, Mean” value [2] was 1.95E-12. The “N-stearoyl leucine level, Mean” value [2] was 1.32E-12, the “N-stearoyl methionine level, Mean” value [2] was 3.92E-13 and the “N-stearoyl phenylalanine level, Mean” value [2] was 1.71E-13. For the same compound, the “2-palmitoyl glycerol Direction (rel to Veh)” value (PND 35, 3 mg/kg CP 55,940) was “↑”, the “2-palmitoyl glycerol, Magnitude (x Veh level)” value (PND 35, 3 mg/kg CP 55,940) was 1.57 x Veh level and the “6-ketoPGF1α Direction (rel to Veh)” value (PND 35, 3 mg/kg CP 55,940) was “↓”. The “6-ketoPGF1α Magnitude (x Veh level)” value (PND 35, 3 mg/kg CP 55,940) was 0.68 x Veh level, the “N-arachidonoyl GABA Direction (rel to Veh)” value (PND 35, 3 mg/kg CP 55,940) was “↓” and the “N-arachidonoyl GABA Magnitude (x Veh level)” value (PND 35, 3 mg/kg CP 55,940) was 0.83 x Veh level. For the same compound, the “N-arachidonoyl alanine Direction (rel to Veh)” value (PND 35, 3 mg/kg CP 55,940) was “↓”, the “N-arachidonoyl alanine Magnitude (x Veh level)” value (PND 35, 3 mg/kg CP 55,940) was 0.77 x Veh level and the “N-arachidonoyl glycine Direction (rel to Veh)” value (PND 35, 3 mg/kg CP 55,940) was “↓”. The “N-arachidonoyl glycine Magnitude (x Veh level)” value (PND 35, 3 mg/kg CP 55,940) was 0.75 x Veh level, the “N-arachidonoyl methionine Direction (rel to Veh)” value (PND 35, 3 mg/kg CP 55,940) was “↓” and the “N-arachidonoyl methionine, Magnitude (x Veh level)” value (PND 35, 3 mg/kg CP 55,940) was 0.60 x Veh level. For the same compound, the “N-arachidonoyl phenylalanine Direction (rel to Veh)” value (PND 35, 3 mg/kg CP 55,940) was “↓”, the “N-arachidonoyl phenylalanine, Magnitude (x Veh level)” value (PND 35, 3 mg/kg CP 55,940) was 0.76 x Veh level and the “N-arachidonoyl serine Direction (rel to Veh)” value (PND 35, 3 mg/kg CP 55,940) was “↓”. For the same compound, the “N-arachidonoyl serine Magnitude (x Veh level)” value (PND 35, 3 mg/kg CP 55,940) was 0.75 x Veh level, the “N-arachidonoyl taurine Direction (rel to Veh)” value (PND 35, 3 mg/kg CP 55,940) was “↓” and the “N-arachidonoyl taurine Magnitude (x Veh level)” value (PND 35, 3 mg/kg CP 55,940) was 0.83 x Veh level. The “N-arachidonoyl tyrosine Direction (rel to Veh)” value (PND 35, 3 mg/kg CP 55,940) was “↓”, the “N-arachidonoyl tyrosine, Magnitude (x Veh level)” value (PND 35, 3 mg/kg CP 55,940) was 0.73 x Veh level and the “N-docosahexaenoyl GABA Direction (rel to Veh)” value (PND 35, 3 mg/kg CP 55,940) was “↓”. The “N-docosahexaenoyl GABA Magnitude (x Veh level)” value (PND 35, 3 mg/kg CP 55,940) was 0.88 x Veh level, the “N-docosahexaenoyl glycine Direction (rel to Veh)” value (PND 35, 3 mg/kg CP 55,940) was “↓” and the “N-docosahexaenoyl glycine Magnitude (x Veh level)” value (PND 35, 3 mg/kg CP 55,940) was 0.78 x Veh level. For the same compound, the “N-docosahexaenoyl leucine Direction (rel to Veh)” value (PND 35, 3 mg/kg CP 55,940) was “↑”, the “N-docosahexaenoyl leucine Magnitude (x Veh level)” value (PND 35, 3 mg/kg CP 55,940) was 1.52 x Veh level and the “N-docosahexaenoyl serine Direction (rel to Veh)” value (PND 35, 3 mg/kg CP 55,940) was “↓”. The “N-docosahexaenoyl serine Magnitude (x Veh level)” value (PND 35, 3 mg/kg CP 55,940) was 0.62 x Veh level, the “N-docosahexaenoyl valine Direction (rel to Veh)” value (PND 35, 3 mg/kg CP 55,940) was “↑” and the “N-docosahexaenoyl valine Magnitude (x Veh level)” value (PND 35, 3 mg/kg CP 55,940) was 1.37 x Veh level. The “N-linoleoyl GABA Direction (rel to Veh)” value (PND 35, 3 mg/kg CP 55,940) was “↓”, the “N-linoleoyl GABA Magnitude (x Veh level)” value (PND 35, 3 mg/kg CP 55,940) was 0.88 x Veh level and the “N-linoleoyl glycine Direction (rel to Veh)” value (PND 35, 3 mg/kg CP 55,940) was “↓”. For the same compound, the “N-linoleoyl glycine Magnitude (x Veh level)” value (PND 35, 3 mg/kg CP 55,940) was 0.69 x Veh level, the “N-oleoyl GABA Direction (rel to Veh)” value (PND 35, 3 mg/kg CP 55,940) was “↓” and the “N-oleoyl GABA Magnitude (x Veh level)” value (PND 35, 3 mg/kg CP 55,940) was 0.81 x Veh level. The “N-oleoyl alanine Direction (rel to Veh)” value (PND 35, 3 mg/kg CP 55,940) was “↓”, the “N-oleoyl alanine Magnitude (x Veh level)” value (PND 35, 3 mg/kg CP 55,940) was 0.75 x Veh level and the “N-oleoyl glycine Direction (rel to Veh)” value (PND 35, 3 mg/kg CP 55,940) was “↓”. The “N-oleoyl glycine Magnitude (x Veh level)” value (PND 35, 3 mg/kg CP 55,940) was 0.89 x Veh level, the “N-oleoyl leucine Direction (rel to Veh)” value (PND 35, 3 mg/kg CP 55,940) was “↑” and the “N-oleoyl leucine Magnitude (x Veh level)” value (PND 35, 3 mg/kg CP 55,940) was 1.22 x Veh level. The “N-oleoyl methionine Direction (rel to Veh)” value (PND 35, 3 mg/kg CP 55,940) was “↓”, the “N-oleoyl methionine, Magnitude (x Veh level)” value (PND 35, 3 mg/kg CP 55,940) was 0.67 x Veh level and the “N-oleoyl valine Direction (rel to Veh)” value (PND 35, 3 mg/kg CP 55,940) was “↑”.
